Reference: paper PMC3124791 (2011)

Molecular target: BACE-1 (β-secretase) (Homo sapiens, UniProt P56817)
Test: cell-free chemoluminescent BACE-1 activity assay
Type: biochemical

Chain of BACE-1 (β-secretase) (P56817 46-457): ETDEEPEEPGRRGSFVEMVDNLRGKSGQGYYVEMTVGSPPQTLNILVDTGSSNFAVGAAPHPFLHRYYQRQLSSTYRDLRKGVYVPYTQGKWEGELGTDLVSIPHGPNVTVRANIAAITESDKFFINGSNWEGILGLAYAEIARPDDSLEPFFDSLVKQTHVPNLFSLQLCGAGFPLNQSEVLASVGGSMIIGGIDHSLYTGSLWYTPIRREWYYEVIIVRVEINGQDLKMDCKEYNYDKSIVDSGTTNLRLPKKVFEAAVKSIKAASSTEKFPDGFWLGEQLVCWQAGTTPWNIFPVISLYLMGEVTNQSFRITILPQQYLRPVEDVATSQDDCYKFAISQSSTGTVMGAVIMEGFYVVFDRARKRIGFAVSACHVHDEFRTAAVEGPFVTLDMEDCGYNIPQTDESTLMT

Compound	IC50 [µM]
O=c1cc(-c2ccc(O)cc2)oc2cc(O)cc(O)c12 [apigenin, 4',5,7-Trihydroxyflavone]	34.2
O=c1c(O)c(-c2ccc(O)cc2)oc2cc(O)cc(O)c12 [kaempferol, 3,5,7-Trihydroxy-2-(4-hydroxyphenyl)-4H-1-benzopyran-4-one]	27.7
